Drawing on patent US20250353820A1, “ANTIVIRAL PYRAZOLOPYRIDINONE COMPOUNDS” (Novartis AG, priority 2019, published 2025), this text covers IC50 for ten molecules.

Usually IC50 stands for the concentration that inhibits the measured activity by half.

Each structure is given as a SMILES string.

This test addresses human HSV DNA polymerase UL30 (Human herpesvirus 1 (strain 17) (HHV-1) (Human herpes simplex virus 1), UniProt P04293). Kind of test: biochemical. To be noted: 625 pM HSV polymerase, 20 minutes at room temperature; read-out: HSV-polymerase Biochemical IC50.
With `Cn1nc(C(=O)NCc2ccc(Cl)cc2)c2c1C(=O)N(CC1(S(=O)(=O)NCCO)CC1)CC2` [Example 143, N-(4-Chlorobenzyl)-6-((1-(N-(2-hydroxyethyl)sulfamoyl)cyclopropyl)methyl)-1-methyl-7-oxo-4,5,6,7-tetrahydro-1H-pyrazolo[3,4-c]pyridine-3-carboxamide], the IC50 is 344 nM.
Under `CN(CCO)S(=O)(=O)C1(CN2CCc3c(C(=O)NCc4ccc(Cl)cc4)nn(C)c3C2=O)CC1` [Example 144, N-(4-Chlorobenzyl)-6-((1-(N-(2-hydroxyethyl)-N-methylsulfamoyl)cyclopropyl)methyl)-1-methyl-7-oxo-4,5,6,7-tetrahydro-1H-pyrazolo[3,4-c]pyridine-3-carboxamide] stands 67 nM.
To `Cn1nc(C(=O)NCc2ccc(C#N)cc2)c2c1C(=O)N(CC1(S(=O)(=O)NCCO)CC1)CC2` [Example 145, N-(4-Cyanobenzyl)-6-((1-(N-(2-hydroxyethyl)sulfamoyl)cyclopropyl)methyl)-1-methyl-7-oxo-4,5,6,7-tetrahydro-1H-pyrazolo[3,4-c]pyridine-3-carboxamide] belongs 237 nM; to `CN(CCO)S(=O)(=O)C1(CN2CCc3c(C(=O)NCc4ccc(C#N)cc4)nn(C)c3C2=O)CC1` [Example 146, N-(4-Cyanobenzyl)-6-((1-(N-(2-hydroxyethyl)-N-methylsulfamoyl)cyclopropyl)methyl)-1-methyl-7-oxo-4,5,6,7-tetrahydro-1H-pyrazolo[3,4-c]pyridine-3-carboxamide], 74 nM.
In the case of `CN(C(CO)CO)S(=O)(=O)C1(CN2CCc3c(C(=O)NCc4ccc(C#N)cc4)nn(C)c3C2=O)CC1` [Example 147, N-(4-Cyanobenzyl)-6-((1-(N-(1,3-dihydroxypropan-2-yl)-N-methylsulfamoyl)cyclopropyl)methyl)-1-methyl-7-oxo-4,5,6,7-tetrahydro-1H-pyrazolo[3,4-c]pyridine-3-carboxamide], the 50% inhibitory concentration (IC50) was 644 nM.
As for `Cn1nc(C(=O)NCc2ccc(Cl)cc2)c2c1C(=O)N(CC1(S(=O)(=O)NC(C)(C)CO)CC1)CC2` [Example 148, N-(4-Chlorobenzyl)-6-((1-(N-(1-hydroxy-2-methylpropan-2-yl)sulfamoyl)cyclopropyl)methyl)-1-methyl-7-oxo-4,5,6,7-tetrahydro-1H-pyrazolo[3,4-c]pyridine-3-carboxamide], the IC50 came out at 155 nM.
`Cn1nc(C(=O)NCc2ccc(C#N)cc2)c2c1C(=O)N(CC1(S(=O)(=O)NC(C)(C)CO)CC1)CC2` [Example 149, N-(4-Cyanobenzyl)-6-((1-(N-(1-hydroxy-2-methylpropan-2-yl)sulfamoyl)cyclopropyl)methyl)-1-methyl-7-oxo-4,5,6,7-tetrahydro-1H-pyrazolo[3,4-c]pyridine-3-carboxamide]: the IC50 is 161 nM.
Consider `Cn1nc(C(=O)NCc2ccc(Cl)cc2)c2c1C(=O)N(CC1(S(=O)(=O)N3CC(O)C3)CC1)CC2` [Example 150, N-(4-Chlorobenzyl)-6-((1-((3-hydroxyazetidin-1-yl)sulfonyl)cyclopropyl)methyl)-1-methyl-7-oxo-4,5,6,7-tetrahydro-1H-pyrazolo[3,4-c]pyridine-3-carboxamide], for which the IC50 amounted to 81 nM.
Turning to `CNS(=O)(=O)C1(CN2CCc3c(C(=O)NCc4ccc(Cl)cc4)nn(C)c3C2=O)CC1` [Example 151, N-(4-Chlorobenzyl)-1-methyl-6-((1-(N-methylsulfamoyl)cyclopropyl)methyl)-7-oxo-4,5,6,7-tetrahydro-1H-pyrazolo[3,4-c]pyridine-3-carboxamide], the concentration for half-maximal inhibition (IC50) was 118 nM.
Regarding `Cn1nc(C(=O)NCc2ccc(Cl)cc2)c2c1C(=O)N(CC1(S(=O)(=O)NCC(C)(C)O)CC1)CC2` [Example 152, N-(4-Chlorobenzyl)-6-((1-(N-(2-hydroxy-2-methylpropyl)sulfamoyl)cyclopropyl)methyl)-1-methyl-7-oxo-4,5,6,7-tetrahydro-1H-pyrazolo[3,4-c]pyridine-3-carboxamide], the half-inhibitory concentration (IC50) worked out at 827 nM.
